From patent US20080214537A1, “BRIDGED PHENANTHRIDINES” (CARA THERAPEUTICS, INC., priority 2007, published 2008) come the findings set out here.

A word on the EC50: it is the concentration needed to bring the measured effect to its halfway point. Read a low EC50 as an effect from little substance.

Experiment [1] addresses human CB1 receptor (hCB1) (Homo sapiens, UniProt P21554). Briefly: cAMP assay (LANCE TR-FRET) in CHO-K1 cells expressing hCB1. It is filed as cell-based. Conditions: activity on hCB1 represents inverse agonism; for Emax: CHO-K1, percent of range defined by CP55,940 (1 μM = 100%), read-out: hCB1 % Max Range; for EC50: CHO-K1 cells stably expressing hCB1, intracellular cAMP, NKH-477 prestimulated. The protocol:
(§1) The ability of compounds to act as agonists or inverse agonists at human CB2 and CB1 receptors (hCB2, hCB1, respectively) was determined by measuring changes in intracellular cAMP levels. Chinese Hamster Ovary (CHO-K1) cell lines stably expressing hCB2 (Genebank: X74328) or hCB1 (Genebank: X54937) were purchased from Euroscreen (Gosselies, Belgium).
(§2) Cell lines were grown in suspension in EX-CELL 302 CHO Serum-free medium (Sigma, catalog #14324C) supplemented with 1% Fetal Bovine Serum, glutamine and with or without non-essential amino-acids under 0.4 mg/mL G418 selection.
(§3) Receptor mediated responses were determined by measuring changes in intracellular cAMP using LANCE cAMP detection kit (catalog #AD0264, PerkinElmer, Wellesley, Mass.) based on time-resolved fluorescence resonance energy transfer (TR-FRET). Changes in cAMP were determined in cells pre-incubated with IBMX (isobutyl methylxanthine) and prestimulated with NKH-477 (a water soluble forskolin derivative, catalog #1603, Tocris, Ellisville, Mo.) to increase basal cAMP levels as detailed below.
(§4) On the day of the experiment, cells were spun at low speed for 5 min at room temperature. The supernatant was removed and cells were resuspended in stimulation buffer (Hanks Buffered Salt Solution/5 mM HEPES, containing 0.5 mM IBMX (catalog #17018, Sigma) and 0.02% BSA (PerkinElmer, catalog #CR84-100)). Cell clumps were removed by filtering through cell strainer 40 μm (BD Falcon, Discovery Labware, Bedford, Mass.) and diluted to 2×10^5 cells/mL. Antibody supplied with the LANCE cAMP immunoassay kit was then added according to the manufacturer's instructions. An aliquot of cells was taken for un-induced controls. To the remaining cells was added NKH-477 (a water soluble forskolin derivative, Tocris catalog #1603) to a final concentration of 2-8 μM. Cells were then incubated for either 25 or 30 min at room temperature prior to adding to Proxiplates containing test compounds (final DMSO concentration was less than 0.5%) with a Multidrop bulk dispenser, followed by a sixty minute incubation at room temperature. The response was stopped by addition of the detection mix supplied with the LANCE kit.
(§5) The reagents were allowed to equilibrate for three hours prior to reading on an Envision multi-mode detector (PerkinElmer). TR-FRET was measured using a 330-380 nm excitation filter, 615 and 665 nm emission filters, dichroic mirror 380 nm and Z=1 mm.
(§6) Cyclic AMP concentrations in each well were back-calculated from a cAMP standard curve run concurrently during each assay. Each plate contained 16 wells of forskolin stimulated cells and 16 wells of forskolin plus CP55,940-treated. CP55,940-treated cells were treated with CP55,940 (Tocris catalog #0949) at 1 μM and the maximal response was used as the full range (100%) standard. WIN55,212 (Tocris catalog #1038) was used as an internal standard. Concentrations of cAMP were expressed as a percent of the difference of these two groups of wells. Concentration-response data including EC50 (the concentration of compound producing 50% of the maximal response) and intrinsic activity (the percent maximal activation compared to full activation by CP55,940) were determined using a four-parameter non-linear regression algorithm (Xlfit equation 251, IDBS).
For orientation: Changes in cAMP serve as a functional read-out for many G protein-coupled receptors.

Experiment [2] addresses human CB2 receptor (hCB2) (Homo sapiens, UniProt P34972). As to the kind of experiment: cAMP assay (LANCE TR-FRET) in CHO-K1 cells expressing hCB2. It is filed as cell-based. Conditions: for Emax: CHO-K1, intrinsic activity: percent maximal activation compared to full activation by CP55,940 (1 μM = 100%), read-out: hCB2 % Max Range; for EC50: CHO-K1 cells stably expressing hCB2, intracellular cAMP, NKH-477 prestimulated, average of at least three replicates. The protocol: as §1, §2, §3, §4, §5
as §6, with “IDBS). Assays were performed with at least three replicates per compound and averaged results for the several compounds of the invention are shown in Table I.” for “IDBS).”

Chain of human CB1 receptor (hCB1) (P21554 whole entry): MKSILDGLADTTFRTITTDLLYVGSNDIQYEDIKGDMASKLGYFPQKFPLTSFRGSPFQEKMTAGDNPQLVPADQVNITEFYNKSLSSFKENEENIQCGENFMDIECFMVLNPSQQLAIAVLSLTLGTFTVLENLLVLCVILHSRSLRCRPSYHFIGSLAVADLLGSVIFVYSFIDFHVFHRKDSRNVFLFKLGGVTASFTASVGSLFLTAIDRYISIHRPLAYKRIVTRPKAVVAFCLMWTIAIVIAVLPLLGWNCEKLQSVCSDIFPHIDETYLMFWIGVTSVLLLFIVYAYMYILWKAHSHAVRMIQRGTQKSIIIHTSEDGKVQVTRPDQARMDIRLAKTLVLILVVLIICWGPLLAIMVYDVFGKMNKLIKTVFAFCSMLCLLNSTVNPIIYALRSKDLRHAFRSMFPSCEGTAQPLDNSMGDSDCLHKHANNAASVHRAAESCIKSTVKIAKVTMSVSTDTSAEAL
Chain of human CB2 receptor (hCB2) (P34972 whole entry): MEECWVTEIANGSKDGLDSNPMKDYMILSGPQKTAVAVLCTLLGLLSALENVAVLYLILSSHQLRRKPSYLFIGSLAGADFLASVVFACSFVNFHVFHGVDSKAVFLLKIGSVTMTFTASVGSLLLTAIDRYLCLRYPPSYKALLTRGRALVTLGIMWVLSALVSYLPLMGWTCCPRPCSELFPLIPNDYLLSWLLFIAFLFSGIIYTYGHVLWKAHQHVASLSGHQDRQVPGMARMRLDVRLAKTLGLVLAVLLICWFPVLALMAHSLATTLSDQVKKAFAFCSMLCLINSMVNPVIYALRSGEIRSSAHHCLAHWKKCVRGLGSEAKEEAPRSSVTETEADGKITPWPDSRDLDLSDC

For `Cn1nccc1C1Nc2ccc(S(=O)(=O)N3CCCC3)cc2C2C3CCC(C3)C12` (stereo not shown) [(42), Bridged 6-(1-methyl-1H-pyrazol-5-yl)-2-(pyrrolidin-1-ylsulfonyl)-5,6,6a,7,8,9,10,10a-octahydrophenanthridine], in experiment [1], the Emax is less than 40% and the EC50 is more than 10 µM. Also, in experiment [2], the Emax was determined as 100% and the midpoint of the response, the EC50, lay at 0.00091 µM.

Turning to `Cc1nc(-c2ccc3c(c2)C2C4CCC(C4)C2C(c2ccccc2)N3)cs1` (stereo not shown) [(43), Bridged 2-methyl-4-(6-phenyl-5,6,6a,7,8,9,10,10a-octahydrophenanthridin-2-yl)thiazole], in experiment [1], the Emax worked out at 182% and it took 3.85 µM to reach a half-maximal effect (EC50). Besides, in experiment [2], the Emax stood at 64.6% and the EC50 came to 0.217 µM.

As for `Cc1nc(-c2ccc3c(c2)C2C4CCC(C4)C2C(c2ccnn2C)N3)cs1` (stereo not shown) [(44), Bridged 2-methyl-4-(6-(1-methyl-1H-pyrazol-5-yl)-5,6,6a,7,8,9,10,1 0a-octahydrophenanthridin-2-yl)thiazole], the Emax in experiment [1] turned out to be 111%; in experiment [2], 70.2%. The figures for the EC50 in experiment [1] and in experiment [2] were 2.93 µM and 0.187 µM, respectively.

With `CCCCc1nnc(-c2ccc3c(c2)C2C4CCC(C4)C2C(c2ccccc2)N3)o1` (stereo not shown) [(45), Bridged 2-butyl-5-(6-phenyl-5,6,6a,7,8,9,10,10a-octahydrophenanthridin-2-yl)-1,3,4-oxadiazole], in experiment [1], the Emax was less than 40% and the half-maximal effective concentration (EC50) is more than 10 µM. Also, in experiment [2], the Emax came to 96.8% and the EC50 stood at 0.0704 µM.

Turning to `CC(=O)NS(=O)(=O)c1ccc2c(c1)C1C3CCC(C3)C1C(c1ccnn1C)N2` (stereo not shown) [(47), Bridged N-(6-(1-methyl-1H-pyrazol-5-yl)-5,6,6a,7,8,9,10,10a-octahydrophenanthridin-2-ylsulfonyl)acetamide], in experiment [1], the Emax is less than 40% and the EC50 was more than 10 µM. In experiment [2], the Emax is 82.5% and a half-maximal response (EC50) required 1.49 µM.

Turning to `O=S(=O)(c1ccc2c(c1)C1CC=CC1C(c1ccccc1)N2)N1CCCCC1` (stereo not shown) [(48), 4-phenyl-8-(piperidin-1-ylsulfonyl)-3a,4,5,9b-tetrahydro-1H-cyclopenta[c]quinoline], in experiment [1], the Emax was less than 40% and the EC50 was more than 10 µM. In experiment [2], the Emax was 82.3% and the EC50 stood at 0.0739 µM.

For the compound `CN(C)S(=O)(=O)c1ccc2c(c1)C1CC=CC1C(c1ccccc1)N2` (stereo not shown) [(49), N,N-dimethyl-4-phenyl-3a,4,5,9b-tetrahydro-1H-cyclopenta[c]quinoline-8-sulfonamide], in experiment [1], the Emax turned out to be 61.8% and the EC50 is 1.04 µM. Also, in experiment [2], the Emax is less than 40% and the EC50 was more than 10 µM.

On to `CC(C)S(=O)(=O)N1c2ccc(S(=O)(=O)N(C)C)cc2C2C3CCC(C3)C2C1c1ccccc1` (stereo not shown) [(50), Bridged 5-(isopropylsulfonyl)-N,N-dimethyl-6-phenyl-5,6,6a,7,8,9,10,10a-octahydrophenanthridine-2-sulfonamide], for which, in experiment [1], the Emax is less than 40% and the EC50 is more than 10 µM. Moreover, in experiment [2], the Emax came to 81.2% and a half-maximal effect (EC50) was put at 1.5 µM.

For the compound `CC(C)S(=O)(=O)Nc1ccc2c(c1)C1C3CCC(C3)C1C(c1ccccc1)N2` (stereo not shown) [(51), Bridged N-(6-phenyl-5,6,6a,7,8,9,10,10a-octahydrophenanthridin-2-yl)propane-2-sulfonamide], in experiment [1], the Emax stood at 100% and the midpoint of the response, the EC50, lay at 2.21 µM. Moreover, in experiment [2], the Emax came to 96.8% and a half-maximal effect (EC50) was put at 0.00162 µM.

Turning to `CS(=O)(=O)N(c1ccc2c(c1)C1C3CCC(C3)C1C(c1ccccc1)N2)S(C)(=O)=O` (stereo not shown) [(52), Bridged N-(methylsulfonyl)-N-(6-phenyl-5,6,6a,7,8,9,10,10a-octahydrophenanthridin-2-yl)methanesulfonamide], the Emax is less than 40% in experiment [1] and 102% in experiment [2]. The EC50 is more than 10 µM in experiment [1] and 0.00063 µM in experiment [2].

Regarding `O=C(NCC1CC1)c1ccc2c(c1)C1C3CCC(C3)C1C(c1ccccc1)N2` (stereo not shown) [Compound (2d), Methylene bridged N-(cyclopropylmethyl)-6-phenyl-5,6,6a,7,8,9,10,10a-octahydrophenanthridine-2-carboxamide], in experiment [1], the Emax was less than 40% and the EC50 was more than 10 µM. Further, in experiment [2], the Emax was 84% and the EC50 turned out to be 0.019 µM.

On to `CCCCC(=O)Nc1ccc2c(c1)C1C3CCC(C3)C1C(c1ccccc1)N2` (stereo not shown) [Compound (4d), Bridged N-(6-phenyl-5,6,6a,7,8,9,10,10a-octahydrophenanthridin-2-yl)pentanamide], for which, in experiment [1], the Emax was less than 40% and the EC50 was more than 10 µM. Also, in experiment [2], the Emax was determined as 92% and it took 0.0069 µM to reach a half-maximal effect (EC50).

With `CCCNC(=O)Nc1ccc2c(c1)C1C3CCC(C3)C1C(c1ccccc1)N2` (stereo not shown) [Compound (5d), Bridged 1-(6-phenyl-5,6,6a,7,8,9,10,10a-octahydrophenanthridin-2-yl)-3-propylurea], in experiment [1], the Emax was found to be 46% and the EC50 was determined as 2.15 µM. Also, in experiment [2], the Emax came to 73% and the EC50 worked out at 0.289 µM.
